In general, half-life refers to the time needed for the level to fall by half in the phase considered. Broadly, the IC50 is the concentration needed to halve the response being measured.

Data set [1] concerns the target T1, DPP-IV activity in serum (Rattus norvegicus, UniProt P14740).
T1 construct: from tissue; host or cells: serum/plasma of male CD rats dosed orally
The data set is described as follows: DPP-IV activity in serum of rats 6 hrs after oral dosing. In kind it is in vivo. The conditions noted are these: for inhibition at 1 mg/kg: rat, read-out: Percent DPP-IV inhibition At 6 hrs In Rats; for duration of action: rats, 6 hrs after 1 mg/kg oral. As to the method: Age and weight matched male CD rats were housed individually at 72° F. and 50% relative humidity with a 12 h light/dark cycle. Animals were dosed by oral gavage with vehicle (10 mM acetic acid) or 1 mg/kg test compound in vehicle. After 6 hrs administration of compound, the rats were anesthetized with isofluorane for cardiac blood collection. DPP-IV activity in serum was measured using the fluorogenic substrate Gly-Pro-AMC (50 mM) according to the manufacturers specification (Enzyme System Products, Livermore Calif.). The substrate was mixed with 50 mM Tris, pH 7.8, in plasma (20% final v/v) and the samples were incubated for 5–20 min at 30° C. DPP-IV activity was determined by measuring fluorescence using a cytofluor spectrofluoremeter with the filters set at 360 nm excitation and 460 nm emission. Averages and standard deviations from each group (n=3) were calculated using students t-test and compared to vehicle treated rats to determine percent inhibition as shown in Table 1.

Data set [2] in a line: Stability studies in Phosphate Buffered Saline by HPLC (cyclization/degradation half-life). The conditions noted are these: PBS; for half-life: Phosphate Buffered Saline.
From the text: (§1) An initial time point HPLC chromatogram is obtained followed by successive HPLC chromatograms at time points of 24, 48, 72, etc hours.
(§2) The area under the drug substance peak is compared to the initial area for each chromatogram and plotted as percent remaining from initial time (t0).
The target of the next data set is T2, human DPP-IV (Homo sapiens, UniProt P27487).
T2 construct: The material was isolated from human prostasomes using the method of DeMeester et al; purchased Athens Research and Technology, Inc; host or cells: human prostasomes (natural source)
T2 sequence (P27487 whole entry): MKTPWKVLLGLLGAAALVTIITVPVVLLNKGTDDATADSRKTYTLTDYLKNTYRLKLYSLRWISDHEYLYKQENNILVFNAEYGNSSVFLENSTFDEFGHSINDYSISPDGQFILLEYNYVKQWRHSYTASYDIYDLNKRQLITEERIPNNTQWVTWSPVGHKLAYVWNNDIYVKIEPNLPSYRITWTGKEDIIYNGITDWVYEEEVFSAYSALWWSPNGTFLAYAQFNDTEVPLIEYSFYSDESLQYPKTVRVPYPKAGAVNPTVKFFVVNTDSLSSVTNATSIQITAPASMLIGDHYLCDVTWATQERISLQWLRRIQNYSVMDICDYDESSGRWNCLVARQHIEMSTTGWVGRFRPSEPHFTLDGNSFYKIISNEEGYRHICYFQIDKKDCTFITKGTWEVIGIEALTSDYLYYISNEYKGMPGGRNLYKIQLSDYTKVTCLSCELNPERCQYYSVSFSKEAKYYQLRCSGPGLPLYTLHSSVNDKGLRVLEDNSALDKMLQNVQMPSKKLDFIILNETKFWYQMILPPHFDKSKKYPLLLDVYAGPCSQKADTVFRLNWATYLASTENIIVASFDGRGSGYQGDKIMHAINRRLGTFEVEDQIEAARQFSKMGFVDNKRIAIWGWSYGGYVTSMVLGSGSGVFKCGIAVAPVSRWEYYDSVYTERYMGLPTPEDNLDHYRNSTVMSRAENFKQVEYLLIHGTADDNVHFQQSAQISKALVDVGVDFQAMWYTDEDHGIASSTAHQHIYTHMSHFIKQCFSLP
In words: DPP-IV assay (H-Ala-Pro-pNA hydrolysis, absorbance). The data set is classed as biochemical. As to the method: A 500 mM stock solution was prepared with dimethylsulfoxide and stored at −20° C. Gly-Pro-AMC was purchased from Enzyme System Products (product no. AMC-39) and stored at −20° C. as a 10 mM stock solution in dimethylsulfoxide. Test compounds were dissolved to 10 mM in dimethylsulfoxide and this was used as a stock solution for DPP-IV titration assays. Athens Research and Technology, Inc prepared the purified human DPP-IV. The material was isolated from human prostasomes using the method of DeMeester et al., J. Immunol.
The average enzymatic activity from wells containing dimethylsulfoxide but lacking test compound was used as a control value for calculating percent inhibition. DPP-IV (20 ng/mL) was mixed in microtiter plates with test compounds, substrate and assay buffer to yield 100 μM H-Ala-Pro-pNA•HCl in 25 mM Tris, pH 7.5, 10 mM KCl, 140 mM NaCl. The intact peptide contains a p-nitrophenylanilide which, when hydrolyzed by DPP-IV, releases the absorbant p-nitrophenylaniline. […] The enzymatic activity was determined by estimating the best linear fit to the data. Values for enzymatic activity were taken directly from the linear fit determined by the software on the plate reader.
Data Analysis: The enzymatic activity was determined by estimating the best linear fit to the data. Data reduction was performed using the Microsoft Excel RoboSage.
Determination of Ki values: Ki values were calculated from IC50 values using equation 3 assuming a competitive model.

In another data set the test system is dogs. In words: Dose escalation studies in dogs, limiting gastrointestinal toxicity. The data set is classed as in vivo. As to the method:
The dog is a common non-rodent species routinely used to satisfy regulatory requirements. The beagle was chosen to examine the safety of the compounds of the present invention because of the knowledge of this strain's general pathology and response to a wide variety of drugs. Dogs (Marshall Farms Inc., North Rose, N.Y., USA) from 9 to 12 months (5 to 12 kg) were dosed by oral gavage at 10 mL/kg/day with vehicle (10 mM acetic acid, pH 3.3) or test compound in vehicle. Each dose was followed by a flush of approximately 10 mL of water, once daily with 24–48 hours between each subsequent dose. If limiting gastrointestinal toxicity was not observed, the dose was increased 3-fold no sooner than approximately 24 hours after the preceding dose. Limiting GI toxicity includes diarrhea, loose or mucoid feces, blood in stool, and/or sloughing of the gut epithelium. Clinical observations were made at least three times daily during treatment (once prior to dosing, approximately one hour post dose, and once in conjunction with pm viability). DPP-IV activity in serum was measured using the fluorogenic substrate Gly-Pro-AMC (50 mM) according to the manufacturers specification (Enzyme System Products, Livermore Calif.). […] DPP-IV activity was determined by measuring fluorescence using a cytofluor spectrofluoremeter with the filters set at 360 nm excitation and 460 nm emission.

The target in data set [3] is T3, DPP-IV activity in serum (Canis lupus familiaris, UniProt A0A8I3Q2I8).
T3 construct: The substrate was mixed with 50 mM Tris, pH 7.8, in serum (20% final v/v); from tissue; host or cells: serum of beagle dogs dosed orally
T3 sequence (A0A8I3Q2I8 1-765): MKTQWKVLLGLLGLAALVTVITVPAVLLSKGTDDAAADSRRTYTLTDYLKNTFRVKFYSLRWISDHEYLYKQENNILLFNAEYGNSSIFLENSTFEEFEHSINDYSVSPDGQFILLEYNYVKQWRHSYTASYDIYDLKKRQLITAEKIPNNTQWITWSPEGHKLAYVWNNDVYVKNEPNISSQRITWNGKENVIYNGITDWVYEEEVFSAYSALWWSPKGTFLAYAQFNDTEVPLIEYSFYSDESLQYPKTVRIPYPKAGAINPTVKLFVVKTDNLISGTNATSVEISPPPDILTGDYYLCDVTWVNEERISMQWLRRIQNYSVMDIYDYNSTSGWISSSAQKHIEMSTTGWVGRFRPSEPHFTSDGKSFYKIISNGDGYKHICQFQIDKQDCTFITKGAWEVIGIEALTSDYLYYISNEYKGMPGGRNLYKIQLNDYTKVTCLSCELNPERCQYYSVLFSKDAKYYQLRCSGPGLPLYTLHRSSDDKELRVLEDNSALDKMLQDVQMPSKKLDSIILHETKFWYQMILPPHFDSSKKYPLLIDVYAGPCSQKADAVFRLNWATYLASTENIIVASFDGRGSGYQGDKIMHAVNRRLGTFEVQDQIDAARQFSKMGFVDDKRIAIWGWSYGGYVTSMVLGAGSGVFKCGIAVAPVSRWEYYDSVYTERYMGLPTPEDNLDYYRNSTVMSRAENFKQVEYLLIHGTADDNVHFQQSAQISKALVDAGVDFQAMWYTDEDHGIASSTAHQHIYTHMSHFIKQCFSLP
In words: DPP-IV activity in serum of dogs after oral dosing. The data set is classed as in vivo. The conditions noted are these: dog, read-out: inhibited DPP4 12 hours after oral dosing.

A short description of the next data set: physchem. The conditions noted are these: buffer, t1/2 at 37° C.
[4] abbreviates: Table I, read-out: IC50 (nM) Human DPP-IV.
[5] abbreviates: human DPP-IV, text b860, read-out: IC50 values.

SMILES strings stand for the structures. Counter-ions that a name gives are not always drawn. Like-named read-outs stand apart in the source and are kept apart here. Where only a bound is given, the exact number is not on record here.

T1 sequence (P14740 37-767 limits assumed): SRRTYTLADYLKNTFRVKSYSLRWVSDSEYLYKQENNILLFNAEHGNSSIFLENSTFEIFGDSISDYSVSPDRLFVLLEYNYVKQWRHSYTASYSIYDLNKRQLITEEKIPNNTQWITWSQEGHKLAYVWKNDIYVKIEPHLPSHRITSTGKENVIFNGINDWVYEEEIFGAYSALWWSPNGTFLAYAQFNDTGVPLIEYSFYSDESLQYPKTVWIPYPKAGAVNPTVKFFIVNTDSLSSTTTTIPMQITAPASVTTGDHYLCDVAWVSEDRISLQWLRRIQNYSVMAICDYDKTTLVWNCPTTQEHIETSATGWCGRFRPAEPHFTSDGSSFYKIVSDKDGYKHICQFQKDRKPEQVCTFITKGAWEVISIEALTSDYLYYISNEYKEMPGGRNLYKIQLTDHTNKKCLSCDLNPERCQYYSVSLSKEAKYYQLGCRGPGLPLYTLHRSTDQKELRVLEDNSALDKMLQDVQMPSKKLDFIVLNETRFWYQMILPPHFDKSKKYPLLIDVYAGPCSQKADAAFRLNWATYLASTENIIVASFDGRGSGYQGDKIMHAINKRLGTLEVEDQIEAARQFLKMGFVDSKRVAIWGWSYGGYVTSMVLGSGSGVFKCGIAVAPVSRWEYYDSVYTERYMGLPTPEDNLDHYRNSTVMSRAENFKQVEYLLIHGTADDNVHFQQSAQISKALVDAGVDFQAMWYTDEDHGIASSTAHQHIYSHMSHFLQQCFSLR
From the text for physchem: as §1, §2

Consider `N#C[C@@H]1CCCN1C(=O)[C@@H](N)C(c1ccc(F)cc1)c1ccc(F)cc1` [Comparison Example 6], for which the “% DPP-IV Inhibition @ 6 Hrs. In Rats” value at DPP-IV activity in serum [1] (Table 3, rats, 6 Hrs.) was 15 ± 1%.

As to `CC[C@H](C)[C@H](N)C(=O)N1C[C@@H](F)C[C@H]1C#N` [Comparison Example 3], the half-life in data set [2] (t1/2 at 23° C., ambient room temperature 23° C.) is 47 h; in data set [2] (t1/2 at 37° C. (calc.), calculated for 37° C. from value measured at 23° C.), 23 h.

For `CC(C)[C@H](N)C(=O)N1C[C@@H](F)C[C@H]1C#N` [Comparison Example 1], the IC50 at human DPP-IV (setting [4]) was 1.3 nM; on human DPP-IV (setting [5]), below 5.6 nM. Moreover, the inhibition at 1 mg/kg at DPP-IV activity in serum [1] (po) came to 32 ± 3%. Further, the duration of action entry at DPP-IV activity in serum [1] was “poor level of duration”.

`N#C[C@@H]1C[C@H](F)CN1C(=O)[C@@H](N)CCC(=O)O` [Comparison Example 2]: the results for the half-inhibitory concentration (IC50) at human DPP-IV (setting [4]) and at human DPP-IV (setting [5]) were 3 nM and below 5.6 nM, respectively. Moreover, the inhibition at 1 mg/kg on DPP-IV activity in serum [1] (po) turned out to be 32 ± 3%. Also, on DPP-IV activity in serum [1], the duration of action entry was “poor level of duration”.

As for `CC(C)(C)[C@H](N)C(=O)N1C[C@@H](F)C[C@H]1C#N` [Comparison Example 5], the IC50 on human DPP-IV (setting [4]) is 3 nM. Besides, on DPP-IV activity in serum [1] (po), the inhibition at 1 mg/kg amounted to 71 ± 13%. Also, the “gastrointestinal toxicity, dose escalation in dogs” value in the data set with dogs (0.3 mg/kg oral gavage) is “loose/mucoid feces with traces of blood”. Moreover, at DPP-IV activity in serum [3] (po), the inhibition at 0.2 mg/kg turned out to be 2%.

As to `N#C[C@@H]1C[C@H](F)CN1C(=O)[C@@H](N)C(c1ccc(F)cc1)c1ccc(F)cc1` [Example 2, (2S,4S)-1-[(2S)-2-Amino-3,3-bis(4-fluorophenyl)propanoyl]-4-fluoropyrrolidine-2-carbonitrile hydrochloride], the inhibition at 1 mg/kg at DPP-IV activity in serum [1] (1 mg/kg oral gavage, male CD rats, serum, 6 hrs, vs vehicle) was found to be 68 ± 4%. Moreover, the “gastrointestinal toxicity, dose escalation in dogs” value in the data set on dogs (dog, in vivo) is reported as “no adverse affects on gastrointestinal toxicity”. Further, the inhibition at 0.5 mg/kg on DPP-IV activity in serum [3] (dogs, 0.5 mg/kg oral, 12 hours, serum) came to 45%. In the data set “physchem”, this compound gave a half-life of 266 h.

`COc1ccc(CS(=O)(=O)C(C)(C)[C@H](N)C(=O)N2C[C@@H](F)C[C@H]2C#N)cc1` [Example 9, (2S,4S)-1-{(2R)-2-Amino-3-[(4-methoxybenzyl)sulfonyl]-3-methylbutanoyl}-4-fluoropyrrolidine-2-carbonitrile hydrochloride]: the “t1/2 at 37° C.” value in data set [2] (37° C.) amounted to 1733 h.

These data come from patent US7132443B2, “Fluoropyrrolidines as dipeptidyl peptidase inhibitors” (SmithKlineBeecham Corporation, priority 2001, dated 2006).
